Measured values from US20240382482A1, “PLASMA KALLIKREIN INHIBITORS” (TAKEDA PHARMACEUTICAL COMPANY LIMITED, priority 2021, published 2024).
Where a name gives a salt, the structure may show the parent alone.

Target: human activated kallikrein enzyme (Homo sapiens, UniProt P03952)
Test: Inhibition of human activated kallikrein enzyme, fluorogenic peptide substrate assay (500 pM enzyme format)
Format: biochemical
Conditions: 500 pM activated kallikrein, 300 μM PFR-AMC substrate, 30 min preincubation, 10 min reaction, room temperature; read-out: Primary Dose Response Assay: Average EC50
Procedure: Compounds were evaluated for inhibition of the human activated kallikrein enzyme in two formats of an assay employing a fluorogenic peptide substrate. In one assay format, the concentrations of reagents were as follows: 20 mM Tris pH 7.5, 1 mM EDTA, 150 mM sodium chloride, 0.1% PEG-400, 0.1% Triton X-100, 500 pM activated kallikrein enzyme, 300 μM Pro-Phe-Arg-7-amido-4-methylcoumarin (PFR-AMC) substrate. Prior to reaction initiation with substrate, enzyme and inhibitors were preincubated for 30 min at room temperature. After initiation with substrate, reactions were incubated for 10 min at room temperature and fluorescence emission at 460 nm from 380 nm excitation measured with a microplate reader. In another assay format, the concentrations of reagents were as follows: 20 mM Tris pH 7.5, 1 mM EDTA, 150 mM sodium chloride, 0.1% PEG-400, 0.1% Triton X-100, 5 pM activated kallikrein enzyme, 300 uM PFR-AMC substrate. Prior to reaction initiation with substrate, enzyme and inhibitors were preincubated for 30 min at room temperature. After initiation with substrate, reactions were incubated for 18 hr at room temperature and fluorescence emission at 460 nm from 380 nm excitation measured with a microplate reader.
Table 1 provides the results of the assay in the format with 500 pM activated kallikrein assay. For the compounds listed in Table 1, the EC50 values are reported according to the following ranges: A≤5.0 nM; 5.0 nM<B≤50 nM; 50 nM<C≤500 nM; 500 nM<D≤9000 nM; 9000 nM<E.

human activated kallikrein enzyme, sequence (P03952 391-638 limits assumed): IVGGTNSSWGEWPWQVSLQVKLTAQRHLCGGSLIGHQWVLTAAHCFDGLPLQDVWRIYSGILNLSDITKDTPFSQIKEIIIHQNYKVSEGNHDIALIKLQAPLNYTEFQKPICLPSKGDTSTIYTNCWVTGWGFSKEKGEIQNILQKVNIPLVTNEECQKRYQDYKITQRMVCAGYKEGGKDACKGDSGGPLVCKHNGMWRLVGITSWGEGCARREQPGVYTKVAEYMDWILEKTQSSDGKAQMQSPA
human activated kallikrein enzyme, sequence (P03952 20-390 partner limits assumed): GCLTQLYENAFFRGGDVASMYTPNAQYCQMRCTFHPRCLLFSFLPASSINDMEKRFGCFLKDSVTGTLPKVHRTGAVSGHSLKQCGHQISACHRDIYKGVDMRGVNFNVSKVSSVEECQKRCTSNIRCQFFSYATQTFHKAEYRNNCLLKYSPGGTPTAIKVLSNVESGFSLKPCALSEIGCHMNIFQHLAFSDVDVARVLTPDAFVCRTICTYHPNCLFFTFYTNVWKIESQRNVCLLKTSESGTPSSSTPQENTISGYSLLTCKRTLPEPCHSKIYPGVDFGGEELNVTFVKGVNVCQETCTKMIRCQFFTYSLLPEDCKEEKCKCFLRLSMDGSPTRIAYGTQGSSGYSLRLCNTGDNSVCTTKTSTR

**Q.** For `O=C(Cc1ncn2ccc(Cl)cc12)Nc1ccnc(NCc2cn3cc(C4CC4)ccc3n2)n1` [Example 16, 2-(7-chloroimidazo[1,5-a]pyridin-1-yl)-N-(2-(((6-cyclopropylimidazo[1,2-a]pyridin-2-yl)methyl)amino)pyrimidin-4-yl)acetamide], which EC50 is on record?
**A.** ≤ 5 nM

**Q.** For `NC(=O)Cc1cc2c(Cl)cn(-c3cc(NCc4cn5cc(C6CC6)ccc5n4)ccn3)c2cc1F` [Example 127, 2-(3-chloro-1-(4-(((6-cyclopropylimidazo[1,2-a]pyridin-2-yl)methyl)amino)pyridin-2-yl)-6-fluoro-1H-indol-5-yl)acetamide], which EC50 is on record?
**A.** 500 to 9000 nM

**Q.** How did the EC50 turn out when `CCOC(=O)CCc1nc(NCc2c(C)cc(C(=N)NO)cc2C)cc(OCc2cn3cc(C4CC4)ccc3n2)n1` [Example 73, ethyl 3-(4-((6-cyclopropylimidazo[1,2-a]pyridin-2-yl)methoxy)-6-((4-(N-hydroxycarbamimidoyl)-2,6-dimethylbenzyl)amino)pyrimidin-2-yl)propanoate] was run?
**A.** 50 to 500 nM

**Q.** With `N#Cc1ccc(Cl)cc1CC(=O)Nc1cc(NCc2cn3cc(C4CC4)ccc3n2)ncn1` [Example 2, 2-(5-chloro-2-cyanophenyl)-N-(6-(((6-cyclopropylimidazo[1,2-a]pyridin-2-yl)methyl)amino)pyrimidin-4-yl)acetamide] as the compound, how does the EC50 read?
**A.** 500 to 9000 nM

**Q.** `O=C(Cc1cc(Cl)ccc1-c1nnn[nH]1)Nc1cc(NCc2cn3cc(C4CC4)ccc3n2)ncn1` [Example 10, 2-(5-chloro-2-(1H-tetrazol-5-yl)phenyl)-N-(6-(((6-cyclopropylimidazo[1,2-a]pyridin-2-yl)methyl)amino)pyrimidin-4-yl)acetamide] was tested. Which EC50 did it give?
**A.** > 9000 nM

**Q.** With `O=C(Cc1ncn2ccc(Cl)cc12)Nc1cc(NCc2cn3cc(C4CC4)ccc3n2)nc(C(=O)O)n1` [Example 21, 4-(2-(7-chloroimidazo[1,5-a]pyridin-1-yl)acetamido)-6-(((6-cyclopropylimidazo[1,2-a]pyridin-2-yl)methyl)amino)pyrimidine-2-carboxylic acid] as the compound, how does the EC50 read?
**A.** ≤ 5 nM

**Q.** How did the EC50 turn out when `O=C(Cc1cc2c(Cl)c[nH]c2cc1F)Nc1cc(NCc2cn3cc(C4CC4)ccc3n2)ccn1` [Example 132, 2-(3-chloro-6-fluoro-1H-indol-5-yl)-N-(4-(((6-cyclopropylimidazo[1,2-a]pyridin-2-yl)methyl)amino)pyridin-2-yl)acetamide] was run?
**A.** 5 to 50 nM

**Q.** Which EC50 does the source give for `CCOC(=O)C(C)(C)Cc1cc(C2CC2)cn2cc(CNc3cc(NC(=O)Cc4ncn5ccc(Cl)cc45)ncn3)nc12` [Example 47, ethyl 3-(2-(((6-(2-(7-chloroimidazo[1,5-a]pyridin-1-yl)acetamido)pyrimidin-4-yl)amino)methyl)-6-cyclopropylimidazo[1,2-a]pyridin-8-yl)-2,2-dimethylpropanoate] here?
**A.** 5 to 50 nM

**Q.** `CCOC(=O)NC(=N)c1cc(C)c(CNc2cc(OCc3cn4cc(C5CC5)ccc4n3)ncn2)c(C)c1` [Example 83, ethyl ((4-(((6-((6-cyclopropylimidazo[1,2-a]pyridin-2-yl)methoxy)pyrimidin-4-yl)amino)methyl)-3,5-dimethylphenyl)(imino)methyl)carbamate] was tested. Which EC50 did it give?
**A.** 50 to 500 nM

**Q.** `O=C(Cc1ncn2ccc(Cl)cc12)Nc1cc(Cc2cn3cc(C4CC4)ccc3n2)ncn1` [Example 57, 2-(7-chloroimidazo[1,5-a]pyridin-1-yl)-N-(6-((6-cyclopropylimidazo[1,2-a]pyridin-2-yl)methyl)pyrimidin-4-yl)acetamide formic acid salt] was tested. Which EC50 did it give?
**A.** ≤ 5 nM

**Q.** With `Cc1cc(C(=N)N)cc(C)c1CNc1cc(OCc2cn3cc(C4CC4)ccc3n2)nc(CC(C)(C)C(=O)O)n1` [Example 92, 3-(4-((4-carbamimidoyl-2,6-dimethylbenzyl)amino)-6-((6-cyclopropylimidazo[1,2-a]pyridin-2-yl)methoxy)pyrimidin-2-yl)-2,2-dimethylpropanoic acid] as the compound, how does the EC50 read?
**A.** ≤ 5 nM

**Q.** `O[C@H]1C[C@H](c2cn3cc(C4CC4)ccc3n2)N(c2cc(NCc3cc4c(Cl)c[nH]c4cc3F)ncn2)C1` [Example 139, (3S,5R)-1-(6-(((3-chloro-6-fluoro-1H-indol-5-yl)methyl)amino)pyrimidin-4-yl)-5-(6-cyclopropylimidazo[1,2-a]pyridin-2-yl)pyrrolidin-3-ol] was tested. Which EC50 did it give?
**A.** 50 to 500 nM

**Q.** With `CC(Cc1cccc(Cl)c1)C(=O)Nc1cc(NCc2cn3cc(C4CC4)ccc3n2)ncn1` (stereo not shown) [Example 7, 3-(3-chlorophenyl)-N-(6-(((6-cyclopropylimidazo[1,2-a]pyridin-2-yl)methyl)amino)pyrimidin-4-yl)-2-methylpropanamide] as the compound, how does the EC50 read?
**A.** 500 to 9000 nM

**Q.** Which EC50 does the source give for `O=C(NCc1ncn2ccc(Cl)cc12)c1cnnc(OCc2cn3cc(C4CC4)ccc3n2)c1` [Example 66, N-((7-chloroimidazo[1,5-a]pyridin-1-yl)methyl)-6-((6-cyclopropylimidazo[1,2-a]pyridin-2-yl)methoxy)pyridazine-4-carboxamide] here?
**A.** 5 to 50 nM

**Q.** How did the EC50 turn out when `O=S(=O)(Nc1cc(NCc2cn3cc(C4CC4)ccc3n2)ncn1)C1CC1c1cccc(Cl)c1` (stereo not shown) [Example 67, 2-(3-chlorophenyl)-N-(6-(((6-cyclopropylimidazo[1,2-a]pyridin-2-yl)methyl)amino)pyrimidin-4-yl)cyclopropane-1-sulfonamide] was run?
**A.** 500 to 9000 nM

**Q.** `COc1ccc(-n2cnnn2)c(CC(=O)Nc2cc(NCc3cn4cc(C5CC5)ccc4n3)ncn2)c1F` [Example 37] was tested. Which EC50 did it give?
**A.** ≤ 5 nM

**Q.** How did the EC50 turn out when `O=C(Cc1ncn2ccc(Cl)cc12)Nc1cc(NCc2cn3cc(C4CC4)cc(C4(F)COC4)c3n2)ncn1` [Example 19, 2-(7-chloroimidazo[1,5-a]pyridin-1-yl)-N-(6-(((6-cyclopropyl-8-(3-fluorooxetan-3-yl)imidazo[1,2-a]pyridin-2-yl)methyl)amino)pyrimidin-4-yl)acetamide] was run?
**A.** ≤ 5 nM

**Q.** With `N#Cc1cc(C2CC2)cn2cc(CNc3cc(NC(=O)Cc4cc(Cl)ccc4-n4cnnn4)ncn3)nc12` [Example 15, 2-(5-chloro-2-(1H-tetrazol-1-yl)phenyl)-N-(6-(((8-cyano-6-cyclopropylimidazo[1,2-a]pyridin-2-yl)methyl)amino)pyrimidin-4-yl)acetamide] as the compound, how does the EC50 read?
**A.** ≤ 5 nM

**Q.** How did the EC50 turn out when `COc1ccc(N)c(CC(=O)Nc2cc(NCc3cn4cc(C5CC5)ccc4n3)ncn2)c1F` [Example 36, 2-(6-amino-2-fluoro-3-methoxyphenyl)-N-(6-(((6-cyclopropylimidazo[1,2-a]pyridin-2-yl)methyl)amino)pyrimidin-4-yl)acetamide] was run?
**A.** 500 to 9000 nM

**Q.** With `O=C(CC1(c2cccc(Cl)c2)CC1)Nc1cc(NCc2cn3cc(C4CC4)ccc3n2)ccn1` [Example 126, 2-(1-(3-chlorophenyl)cyclopropyl)-N-(4-(((6-cyclopropylimidazo[1,2-a]pyridin-2-yl)methyl)amino)pyridin-2-yl)acetamide] as the compound, how does the EC50 read?
**A.** 500 to 9000 nM

**Q.** How did the EC50 turn out when `O=C(Cc1ncn2ccc(Cl)cc12)Nc1cc(NCc2cn3cc(C4CC4)ccc3n2)ccn1` [Example 25, 2-(7-chloroimidazo[1,5-a]pyridin-1-yl)-N-(4-(((6-cyclopropylimidazo[1,2-a]pyridin-2-yl)methyl)amino)pyridin-2-yl)acetamide] was run?
**A.** ≤ 5 nM

**Q.** For `Cc1cc(C(=N)N)cc(C)c1CNc1cc(OCc2cn3cc(C4CC4)cc(CC(=O)O)c3n2)ncn1` [Example 95, 2-(2-((6-(4-carbamimidoyl-2,6-dimethylbenzylamino)pyrimidin-4-yloxy)methyl)-6-cyclopropylimidazo[1,2-a]pyridin-8-yl)acetic acid], which EC50 is on record?
**A.** ≤ 5 nM

**Q.** For `O=C(Cn1c(=O)oc2ccc(Cl)cc21)Nc1cc(NCc2cn3cc(C4CC4)ccc3n2)ccn1` [Example 124, 2-(5-chloro-2-oxobenzo[d]oxazol-3 (2H)-yl)-N-(4-(((6-cyclopropylimidazo[1,2-a]pyridin-2-yl)methyl)amino)pyridin-2-yl)acetamide], which EC50 is on record?
**A.** 500 to 9000 nM

**Q.** `Cc1cc(C(=N)N)cc(C)c1CNc1cc(NCc2cn3cc(C4CC4)ccc3n2)ncn1` [Example 99, 4-(((6-(((6-cyclopropylimidazo[1,2-a]pyridin-2-yl)methyl)amino)pyrimidin-4-yl)amino)methyl)-3,5-dimethylbenzimidamide] was tested. Which EC50 did it give?
**A.** ≤ 5 nM

**Q.** With `CC(C(=O)Nc1cc(NCc2cn3cc(C4CC4)ccc3n2)ncn1)N(C)c1cccc(Cl)c1` (stereo not shown) [Example 9, 2-((3-chlorophenyl)(methyl)amino)-N-(6-(((6-cyclopropylimidazo[1,2-a]pyridin-2-yl)methyl)amino)pyrimidin-4-yl)propanamide] as the compound, how does the EC50 read?
**A.** 500 to 9000 nM

**Q.** With `Cc1cc(C(=N)N)cc(C)c1CNc1cc(OCc2cn3cc(C4CC4)ccc3n2)nc(C(=O)O)n1` [Example 85, 4-((4-carbamimidoyl-2,6-dimethylbenzyl)amino)-6-((6-cyclopropylimidazo[1,2-a]pyridin-2-yl)methoxy)pyrimidine-2-carboxylic acid] as the compound, how does the EC50 read?
**A.** ≤ 5 nM

**Q.** Which EC50 does the source give for `CCOC(=O)CCc1cc(C2CC2)cn2cc(COc3cc(NCc4c(C)cc(C(=N)N)cc4C)ncn3)nc12` [Example 96, ethyl 3-(2-(((6-((4-carbamimidoyl-2,6-dimethylbenzyl)amino)pyrimidin-4-yl)oxy)methyl)-6-cyclopropylimidazo[1,2-a]pyridin-8-yl)propanoate] here?
**A.** ≤ 5 nM

**Q.** `COc1ccc2oc(=O)n(CC(=O)Nc3cc(NCc4cn5cc(C6CC6)ccc5n4)ncn3)c2c1` [Example 122, N-(6-(((6-cyclopropylimidazo[1,2-a]pyridin-2-yl)methyl)amino)pyrimidin-4-yl)-2-(5-methoxy-2-oxobenzo[d]oxazol-3 (2H)-yl)acetamide] was tested. Which EC50 did it give?
**A.** > 9000 nM
